Data reported in paper PMC3813382 (The Journal of General Physiology, 2013).
Positions count from the first letter of the chain named.

Key:
M262A Slo2.1 channels = molecular target: T1, M262A Slo2.1 channels (Homo sapiens, UniProt Q6UVM3, M262A); assay: Activation of ISlo2.1 by NFA, two-electrode voltage clamp in oocytes; format: cell-based
T1 sequence (Q6UVM3 1-1135 M262A): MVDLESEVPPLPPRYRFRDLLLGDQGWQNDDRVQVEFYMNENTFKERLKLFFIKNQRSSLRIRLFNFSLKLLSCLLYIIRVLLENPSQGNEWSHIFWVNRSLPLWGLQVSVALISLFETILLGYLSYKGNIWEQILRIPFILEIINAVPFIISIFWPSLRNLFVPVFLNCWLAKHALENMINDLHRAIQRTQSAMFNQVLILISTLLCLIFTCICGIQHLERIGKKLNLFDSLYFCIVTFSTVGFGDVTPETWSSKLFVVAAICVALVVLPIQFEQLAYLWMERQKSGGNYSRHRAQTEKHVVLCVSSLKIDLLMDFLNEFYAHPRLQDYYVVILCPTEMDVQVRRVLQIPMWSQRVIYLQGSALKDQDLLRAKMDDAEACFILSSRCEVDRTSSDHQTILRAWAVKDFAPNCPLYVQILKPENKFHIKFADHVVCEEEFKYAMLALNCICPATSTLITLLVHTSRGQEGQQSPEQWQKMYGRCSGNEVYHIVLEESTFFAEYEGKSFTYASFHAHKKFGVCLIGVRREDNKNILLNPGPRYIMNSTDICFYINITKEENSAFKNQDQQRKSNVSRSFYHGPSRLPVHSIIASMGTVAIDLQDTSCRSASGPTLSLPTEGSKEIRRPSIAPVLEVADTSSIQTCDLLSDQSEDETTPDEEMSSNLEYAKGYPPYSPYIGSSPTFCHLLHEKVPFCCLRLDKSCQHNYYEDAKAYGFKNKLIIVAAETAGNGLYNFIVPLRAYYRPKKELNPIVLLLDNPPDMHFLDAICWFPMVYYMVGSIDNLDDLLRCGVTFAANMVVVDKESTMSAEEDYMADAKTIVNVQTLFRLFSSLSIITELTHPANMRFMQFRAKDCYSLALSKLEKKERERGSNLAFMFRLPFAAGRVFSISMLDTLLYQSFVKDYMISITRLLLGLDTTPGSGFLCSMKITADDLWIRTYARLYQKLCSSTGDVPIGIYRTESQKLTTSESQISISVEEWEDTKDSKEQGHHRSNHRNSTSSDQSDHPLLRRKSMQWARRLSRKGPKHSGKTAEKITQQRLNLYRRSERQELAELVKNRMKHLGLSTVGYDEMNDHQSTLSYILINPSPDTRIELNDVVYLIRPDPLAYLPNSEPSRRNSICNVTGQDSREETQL

E275D Slo2.1 channels = molecular target: T2, E275D Slo2.1 channels (Homo sapiens, UniProt Q6UVM3, E275D); assay: as above; format: cell-based
T2 sequence (Q6UVM3 1-1135 E275D): T1 sequence (Q6UVM3 1-1135 M262A) with A262M, E275D

## O=C(O)c1cccnc1Nc1cccc(C(F)(F)F)c1 [NFA, niflumic acid]
M262A Slo2.1 channels
  EC50: 660 ± 130 µM
M262A Slo2.1 channels; M262A
  Hill coefficient nH of NFA activation: 1.4 ± 0.06
E275D Slo2.1 channels
  EC50: 192 µM
E275D Slo2.1 channels; E275D
  Hill coefficient nH of NFA activation: 1.08 ± 0.09
E275D Slo2.1 channels; E275D vs WT
  EC50 for E275D lower than EC50 for WT channels: 11 fold
E275D Slo2.1 channels; E275D, 3 mM NFA (maximally effective concentration)
  maximal increase in current at 0 mV: ~2.5 fold
